Where two headings read alike, the source gives them in different places. Residues, ends and D or L forms follow the SMILES beside them.
Tests used:
[1] = target: T1, hNTS1R (Homo sapiens, UniProt P30989); experiment: radioligand competition binding with [3H]UR-MK300 at intact HT-29 cells; details: for Ki / pKi ± SD NTS1R: [3H]UR-MK300 c = 1 nM, HT-29 cells, 23 °C
T1 construct: intact HT-29 colon carcinoma cells expressing the hNTS1R; host or cells: HT-29 human colon carcinoma cells
Excerpt: Specific binding data (obtained by subtracting unspecific binding from total binding) were normalized (100% = specifically bound radioligand in the absence of competitor) and plotted over log(concentration of competitor) followed by a four-parameter logistic fit (SigmaPlot 12.5, Systat Software, San José, CA, USA) (note: in the case of 40, the lower curve plateau of the sigmoidal fit was constrained to >0). […] The Ki values from individual experiments were transformed to pKi values, followed by the calculation of mean pKi values ± SD.

[2] = in vitro; type: in vitro ADME; details: human; for remaining at 1 h, 100 µM / remaining at 6 h, 100 µM / remaining at 24 h, 100 µM / remaining at 48 h, 100 µM: plasma; for remaining at 1 h, 100 µM: pH 7.4, % Intact Peptide in Plasma after 1 h; for remaining at 6 h, 100 µM: pH 7.4, % Intact Peptide in Plasma after 6 h; for remaining at 24 h, 100 µM: pH 7.4, % Intact Peptide in Plasma after 24 h; for remaining at 48 h, 100 µM: pH 7.4, % Intact Peptide in Plasma after 48 h
Method: The concentration of the peptides in plasma/PBS (1:2 v/v) was 80 and 4 μM (recovery determination) or 100 μM (stability tests). Data analysis was based on UV detection at 220 nm (8, 9, 11, 12, 14-18, 21-23, 38-49, and 54-57) or fluorescence detection at 275/305 nm (19 and 20). Reference samples, representing 100% recovery, were prepared in duplicate (8, 9, 11, 14-16, and 19-21) or quadruplicate (12, 17, 18, 22, 23, 38-49, and 54-57). Recovery ratios were obtained by dividing the recovery of the peptide by the recovery of IS for each individual sample (n = 3-5). The obtained recoveries and the recovery ratios are summarized in Table S2, Supplementary Materials. […] Instead, the recovery ratios determined for the previously reported, structurally closely related peptide […] [40] were used for calculating the amount of remaining intact peptide in plasma.

[3] = target: hNTS2R (Homo sapiens, UniProt O95665); experiment: radioligand competition binding with [3H]UR-MK300 at intact HEK293T-hNTS2R cells; details: [3H]UR-MK300 c = 10 nM
Method: Two days prior to the experiment, white 96-well plates with clear bottoms (Costar, catalog no. 3610) were treated with poly-D-lysine hydrobromide (Sigma-Aldrich) for 10 min. The wells were washed with H2O and the plates were dried on air at rt overnight. […] After removal of the glutaraldehyde solution, the wells were washed twelve times with H2O and two times with culture medium (150–300 µL). […] On the day of the experiment, the culture medium was carefully removed using a multi-channel pipette (Transferpette S-12, Brand, Wertheim, Germany) and the cells were washed once with Dulbecco’s phosphate-buffered saline (D-PBS) containing Ca^2+ and Mg^2+ (1.8 mM CaCl2, 2.68 mM KCl, 1.47 mM KH2PO4, 3.98 mM MgSO4, 136.9 mM NaCl and 8.06 mM Na2HPO4) (200 μL, rt) followed by the careful pre-filling of the wells with 180 µL (total binding) or 160 µL (unspecific and competition binding) of D-PBS, supplemented with 1% BSA and 100 μg/mL bacitracin (Serva, Heidelberg, Germany) (in the following referred to as binding buffer). To determine total binding, 20 µL of a solution of the radioligand in binding buffer (10-fold concentrated compared to the final concentration) were added. […] To determine the displacing effect of a compound of interest, 20 µL of a solution of the respective compound in binding buffer (10-fold concentrated) and 20 µL of a 10-fold concentrated solution of the radioligand in binding buffer were added. During the incubation period of 2 h at 23 °C, the plates were gently shaken. […] The plates were sealed with a transparent sealing tape (permanent seal for microplates, PerkinElmer, product no. 1450–461) and turned upside down several times to achieve complete mixing. Prior to the measurement of the radioactivity with a MicroBeta2 plate counter (PerkinElmer), the plates were kept in the dark for at least 1 h. All experiments were performed in triplicate.

[4] = read-out: Ki [nM] NTS1R (converted)
[5] = read-out: Ki [nM] NTS2R (converted)
[6] = read-out: pKi ± SD NTS2R (converted)
[7] = read-out: pKi ± SD NTS1R (converted)

T1 sequence (P30989 whole entry): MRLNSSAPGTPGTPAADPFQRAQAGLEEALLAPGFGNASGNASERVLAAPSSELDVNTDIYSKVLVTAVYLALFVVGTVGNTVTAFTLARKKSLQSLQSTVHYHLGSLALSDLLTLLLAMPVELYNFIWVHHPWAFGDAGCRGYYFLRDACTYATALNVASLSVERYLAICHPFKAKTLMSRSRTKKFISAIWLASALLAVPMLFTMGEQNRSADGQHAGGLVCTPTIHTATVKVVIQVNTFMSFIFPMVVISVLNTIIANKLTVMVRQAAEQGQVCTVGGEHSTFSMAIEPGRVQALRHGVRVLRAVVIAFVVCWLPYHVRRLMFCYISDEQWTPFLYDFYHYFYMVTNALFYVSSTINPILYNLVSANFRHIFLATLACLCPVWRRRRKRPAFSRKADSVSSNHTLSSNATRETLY
hNTS2R, sequence (O95665 whole entry): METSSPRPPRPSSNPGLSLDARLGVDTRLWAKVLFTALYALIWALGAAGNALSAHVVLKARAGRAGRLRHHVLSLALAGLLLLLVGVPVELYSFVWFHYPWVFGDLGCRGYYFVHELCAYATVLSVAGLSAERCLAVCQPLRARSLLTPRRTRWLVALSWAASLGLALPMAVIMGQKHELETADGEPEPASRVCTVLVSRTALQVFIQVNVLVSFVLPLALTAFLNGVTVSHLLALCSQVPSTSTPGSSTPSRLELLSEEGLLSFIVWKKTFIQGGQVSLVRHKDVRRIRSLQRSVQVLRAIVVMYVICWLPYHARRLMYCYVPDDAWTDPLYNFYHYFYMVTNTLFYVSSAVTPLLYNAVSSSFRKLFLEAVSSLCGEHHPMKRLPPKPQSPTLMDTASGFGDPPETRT

| SMILES | NTS1R Selectivity (Ratio Ki (NTS2R)/Ki (NTS1R)) [1] | Ki [1, 4] | remaining at 1 h, 100 µM [2] | remaining at 6 h, 100 µM [2] | remaining at 24 h, 100 µM [2] | remaining at 48 h, 100 µM [2] | Ki [3, 5] | Ki [3, 6] | Ki [1, 7] | % Intact Peptide in Plasma after 24 h ([2]; 100 µM, pH 7.4) | % Intact Peptide in Plasma after 48 h ([2]; 100 µM, pH 7.4) | pKi ± SD NTS1R [1] | pKi ± SD NTS2R [3] | % Intact Peptide in Plasma after 1 h ([2]; 1 h, 100 µM, pH 7.4) | % Intact Peptide in Plasma after 6 h ([2]; 6 h, 100 µM, pH 7.4) | lower NTS1R affinity compared to 56 ([1]; 57 versus 56) |
| --- | --- | --- | --- | --- | --- | --- | --- | --- | --- | --- | --- | --- | --- | --- | --- | --- |
| CN[C@@H](CCCNC(=N)N)C(=O)N[C@@H](CCCNC(=N)NC(=O)NCCCCN)C(=O)N1CCC[C@H]1C(=O)N[C@@H](Cc1ccc(O)cc1)C(=O)N[C@H](C(=O)N[C@@H](CC(C)C)C(=O)O)C(C)(C)C [Compound 8] | 4.2 | 5.3 nM | > 99% | > 99% | > 99% | > 99% | 22 nM | 20.9 nM |  |  |  |  |  |  |  |  |
| CC(C)C[C@H](NC(=O)[C@@H](NC(=O)[C@H](Cc1ccc(O)cc1)NC(=O)[C@@H]1CCCN1C(=O)[C@H](CCCNC(=N)NC(=O)NCCCCN)N(C)C(=O)[C@@H](N)CCCNC(=N)N)C(C)(C)C)C(=O)O [Compound 11] | 2.1 | 13 nM | > 99% | > 99% | > 99% | > 99% | 27 nM |  |  |  |  |  |  |  |  |  |
| CN[C@@H](CCCNC(=N)N)C(=O)N[C@@H](CCCNC(=N)NC(=O)NCCCCNC(=O)CN1CCN(CC(=O)O)CCN(CC(=O)O)CCN(CC(=O)O)CC1)C(=O)N1CCC[C@H]1C(=O)N[C@@H](Cc1ccc(O)cc1)C(=O)N[C@H](C(=O)N[C@@H](CC(C)C)C(=O)O)C(C)(C)C [Compound 14] | 2.8 | 28 nM |  |  |  |  | 79 nM |  | 21.9 nM |  |  |  |  |  |  |  |
| CN[C@@H](CCCNC(N)=NC(=O)NCCCCNC(=O)CN1CCN(CC(=O)O)CCN(CC(=O)O)CCN(CC(=O)O)CC1)C(=O)N[C@@H](CCCNC(=N)N)C(=O)N1CCC[C@H]1C(=O)N[C@@H](Cc1ccc(O)cc1)C(=O)N[C@H](C(=O)N[C@@H](CC(C)C)C(=O)O)C(C)(C)C [Compound 16] | 4.5 | 33 nM |  |  |  |  | 150 nM | 138 nM | 33.1 nM | 93 ± 3% | 84 ± 2% |  |  |  |  |  |
| CC(C)C[C@H](NC(=O)[C@@H](NC(=O)[C@H](Cc1ccc(O)cc1)NC(=O)[C@@H]1CCCN1C(=O)[C@H](CCCNC(=N)NC(=O)NCCCCNC(=O)CN1CCN(CC(=O)O)CCN(CC(=O)O)CCN(CC(=O)O)CC1)N(C)C(=O)[C@@H](N)CCCNC(=N)N)C(C)(C)C)C(=O)O [Compound 17] | 6.4 | 36 nM | 97 ± 1% | 99 ± 1% |  |  | 230 nM | 224 nM |  | 98 ± 1% |  |  |  |  |  |  |
| CN[C@@H](CCCNC(=N)N)C(=O)N[C@@H](CCCNC(N)=NC(=O)NCCCCNC(=O)CN1CCN(CC(=O)O)CCN(CC(=O)O)CCN(CC(=O)O)CC1)C(=O)N1CCC[C@H]1C(=O)N[C@@H](Cc1ccc(O)cc1)C(=O)N[C@H](C(=O)N[C@@H](CC(C)C)C(=O)O)C(C)(C)C [Compound 19] | 4.6 | 16 nM | > 99% | > 99% | 36 ± 1% | 4.2 ± 0.6% | 73 nM |  |  |  |  | 7.80 ± 0.03 | 7.16 ± 0.18 |  |  |  |
| CC(C)C[C@H](NC(=O)[C@@H](NC(=O)[C@H](Cc1ccc(O)cc1)NC(=O)[C@@H]1CCCN1C(=O)[C@H](CCCNC(N)=NC(=O)NCCCCNC(=O)CN1CCN(CC(=O)O)CCN(CC(=O)O)CCN(CC(=O)O)CC1)N(C)C(=O)[C@@H](N)CCCNC(=N)N)C(C)(C)C)C(=O)O [Compound 22] | 4.4 | 20 nM |  |  |  |  | 88 nM |  |  | 30 ± 1% | 7.7 ± 1.0% | 7.70 ± 0.07 | 7.08 ± 0.16 | >99% | 87 ± 2% |  |
| CN[C@@H](CCCNC(=N)N)C(=O)N[C@@H](CCCNC(=N)N)C(=O)N1CCC[C@H]1C(=O)N[C@@H](Cc1ccc(O)cc1)C(=O)N[C@H](C(=O)N[C@@H](CC(C)C)C(=O)O)C1CCC1 [Compound 42] |  | 1.1 nM | 91 ± 1% | 79 ± 1% | 32 ± 1% | < 1% |  |  | 1.05 nM |  |  |  |  |  |  |  |
| CN[C@@H](CCCNC(=N)N)C(=O)N[C@@H](CCCNC(=N)N)C(=O)N1CCC[C@H]1C(=O)N[C@@H](Cc1ccc(O)cc1)C(=O)N[C@H](C(=O)N[C@@H](CC(C)C)C(=O)O)C1CCCC1 [Compound 43] |  | 1.2 nM | 99 ± 1% | 95 ± 1% | 78 ± 1% | 58 ± 1% |  |  |  |  |  |  |  |  |  |  |
| CN[C@@H](CCCNC(=N)N)C(=O)N[C@@H](CCCNC(=N)N)C(=O)N1CCC[C@H]1C(=O)N[C@@H](Cc1ccc(O)cc1)C(=O)N[C@@](C)(CC(C)C)C(=O)N[C@@H](CC(C)C)C(=O)O [Compound 44] (HELM PEPTIDE1{[meR].R.P.Y.[CC(C)C[C@](C)(N[*:1])C(=O)[*:2]].L}$$$$V2.0) |  | > 1000 nM | 94 ± 1% | 91 ± 4% | 91 ± 1% | 87 ± 1% |  |  | > 1000 nM |  |  |  |  |  |  |  |
| CC[C@](C)(NC(=O)[C@H](Cc1ccc(O)cc1)NC(=O)[C@@H]1CCCN1C(=O)[C@H](CCCNC(=N)N)NC(=O)[C@H](CCCNC(=N)N)NC)C(=O)N[C@@H](CC(C)C)C(=O)O [Compound 45] |  | > 1000 nM | 93 ± 1% | 92 ± 1% | 86 ± 1% | 77 ± 1% |  |  | > 1000 nM |  |  |  |  |  |  |  |
| CC[C@H](C)[C@H](NC(=O)[C@H](Cc1ccc(O)cc1)NC(=O)[C@@H]1CCCN1C(=O)[C@H](CCCNC(=N)N)NC(=O)[C@H](CCCNC(=N)N)NC)C(=O)N[C@@H](CC1CC1)C(=O)O [Compound 46] |  | 2.6 nM | 25 ± 2% | < 1% | < 1% | < 1% |  |  | 2.34 nM |  |  |  |  |  |  |  |
| CN[C@@H](CCCNC(N)=NC(=O)NCCCCN)C(=O)N[C@@H](CCCNC(=N)N)C(=O)N1CCC[C@H]1C(=O)N[C@H](C(=O)N[C@H](C(=O)N[C@@H](CC(C)C)C(=O)O)C(C)(C)C)C(C)(C)c1ccc(O)cc1 [Compound 52] | 1.2 | 5.4 nM |  |  |  |  | 6.5 nM | 6.03 nM | 5.01 nM |  |  |  |  |  |  |  |
| CN[C@@H](CCCNC(N)=NC(=O)NCCCCN)C(=O)N[C@@H](CCCNC(=N)N)C(=O)N1CCC[C@H]1C(=O)N[C@@H](C(=O)N[C@H](C(=O)N[C@@H](CC(C)C)C(=O)O)C(C)(C)C)C(C)(C)c1ccc(O)cc1 [Compound 53] |  |  |  |  |  |  | 450 nM | 398 nM |  |  |  |  |  |  |  |  |
| CN[C@@H](CCCNC(N)=NC(=O)NCCCCNC(=O)CN1CCN(CC(=O)O)CCN(CC(=O)O)CCN(CC(=O)O)CC1)C(=O)N[C@@H](CCCNC(=N)N)C(=O)N1CCC[C@H]1C(=O)N[C@H](C(=O)N[C@H](C(=O)N[C@@H](CC(C)C)C(=O)O)C(C)(C)C)C(C)(C)c1ccc(O)cc1 [Compound 57] |  | 21 nM | > 99% | > 99% | 68 ± 1% | < 1% |  |  |  |  |  | 7.67 ± 0.04 |  |  |  | 18 fold |

— article PMC9564337, “Development of a Neurotensin-Derived ^68Ga-Labeled PET Ligand with High In Vivo Stability for Imaging of NTS1 Receptor-Expressing Tumors” (Cancers, 2022)
